Results as given in paper PMC5605781 (Journal of medicinal chemistry, 2017).

Tests used:
HIV-1 = settings: antiviral activity; cited from earlier work
HIV-1NL4-3 = assay: Antiviral p24 assay in MT-4 cells, wild-type HIV-1NL4-3; format: cell-based; settings: wild-type HIV-1NL4-3, compared to DRV
[1] = tested on: seven HIV-1 variants selected in vitro with SQV, APV, LPV, IDV, NFV, ATV, TPV; assay: microbe, parasite or virus in culture; format: cell-based; settings: Human immunodeficiency virus 1, read-out: IC50 values, range over variants

SMILES | EC50 (HIV-1) [nM] | factor of more potent block of replication compared to DRV (HIV-1NL4-3) | IC50 [1] [nM]
COc1ccc(S(=O)(=O)N(CC(C)C)C[C@@H](O)[C@H](Cc2ccccc2)NC(=O)O[C@H]2CO[C@H]3OCC[C@H]32)cc1 [Inhibitor 3] | 0.5 |  | 
CC(C)CN(C[C@@H](O)[C@H](Cc1ccccc1)NC(=O)O[C@H]1C2CO[C@H]3OCC1C3C2)S(=O)(=O)c1ccc2nc(NC3CC3)sc2c1 (stereo partly drawn) [Inhibitor 5, (3S,7aS,8S)-Hexahydro-4H-3,5-methanofuro[2,3-b]pyran-8-yl ((2S,3R)-4-((2-(cyclopropylamino)-N-isobutylbenzo[d]thiazole)-6-sulfonamido)-3-hydroxy-1-phenylbutan-2-yl)carbamate] |  | 10 | 0.0026 to 0.27
